Assay [1] in a line: Displacement of [3H]Ro15-1788 from GABA-A receptor benzodiazepine site in bovine brain cerebral cortex membranes. On the set-up: species or system Bos taurus, Membrane.
For assay [2], the species on record is Bos taurus. Kind of assay: Displacement of [3H]Ro15-1788 from GABA-A receptor benzodiazepine site in bovine brain cerebral cortex membranes at 10 uM relative to control. The settings on record: Membrane.
For assay [3], the system named is Mus musculus. Description: Anxiolytic-like activity in CD-1 mouse assessed as time spent in light area at 1 mg/kg, po administered 30 mins prior to test by light/dark exploration test relative to control. It counts as functional.
In assay [4] the test system is Rattus norvegicus. Kind of assay: Anxiolytic-like activity in Sprague-Dawley rat assessed as total number of arm entries at 1 mg/kg, po administered 30 mins prior to test by elevated […] maze test. It is filed as functional.
In assay [5] the test system is Rattus norvegicus. Description: Anxiolytic-like activity in Sprague-Dawley rat assessed as time spent in open arms at 1 mg/kg, po administered 30 mins prior to test by elevated […] maze test relative to control. It counts as functional.
Assay [6] relates to Mus musculus. Description: Anxiolytic-like activity in CD-1 mouse assessed as number of transfer from one compartment to other at 1 mg/kg, po administered 30 mins prior to test by light/dark exploration test. It is filed as functional.
Assay [7] has as its system Mus musculus. Kind of assay: Anxiolytic-like activity in CD-1 mouse assessed as time spent in light area at 10 mg/kg, po administered 30 mins prior to test followed by flumazenil injection by light/dark exploration test relative to control. It counts as functional.
For assay [8], the system named is Mus musculus. Kind of assay: Anxiolytic-like activity in CD-1 mouse assessed as time spent in light area at 30 mg/kg, po administered 30 mins prior to test by light/dark exploration test relative to control. It is filed as functional.
Assay [9] has as its target T1, GABA-A receptor; alpha-1/beta-2/gamma-2 (Homo sapiens, UniProt P14867+P18507+P47870).
T1 sequence (P14867 whole entry): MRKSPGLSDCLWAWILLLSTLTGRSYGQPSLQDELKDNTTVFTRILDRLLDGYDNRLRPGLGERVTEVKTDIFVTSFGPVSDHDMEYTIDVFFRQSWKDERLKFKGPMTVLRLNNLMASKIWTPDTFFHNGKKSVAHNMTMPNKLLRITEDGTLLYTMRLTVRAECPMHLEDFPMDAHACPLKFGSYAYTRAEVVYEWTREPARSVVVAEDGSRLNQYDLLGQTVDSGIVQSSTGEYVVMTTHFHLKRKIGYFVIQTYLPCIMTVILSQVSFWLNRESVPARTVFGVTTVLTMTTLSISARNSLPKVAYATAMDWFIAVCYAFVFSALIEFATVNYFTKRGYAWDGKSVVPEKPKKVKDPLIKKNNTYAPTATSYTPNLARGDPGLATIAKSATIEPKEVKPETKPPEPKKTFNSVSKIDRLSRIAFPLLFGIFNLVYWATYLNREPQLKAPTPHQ
T1 sequence (P47870 whole entry): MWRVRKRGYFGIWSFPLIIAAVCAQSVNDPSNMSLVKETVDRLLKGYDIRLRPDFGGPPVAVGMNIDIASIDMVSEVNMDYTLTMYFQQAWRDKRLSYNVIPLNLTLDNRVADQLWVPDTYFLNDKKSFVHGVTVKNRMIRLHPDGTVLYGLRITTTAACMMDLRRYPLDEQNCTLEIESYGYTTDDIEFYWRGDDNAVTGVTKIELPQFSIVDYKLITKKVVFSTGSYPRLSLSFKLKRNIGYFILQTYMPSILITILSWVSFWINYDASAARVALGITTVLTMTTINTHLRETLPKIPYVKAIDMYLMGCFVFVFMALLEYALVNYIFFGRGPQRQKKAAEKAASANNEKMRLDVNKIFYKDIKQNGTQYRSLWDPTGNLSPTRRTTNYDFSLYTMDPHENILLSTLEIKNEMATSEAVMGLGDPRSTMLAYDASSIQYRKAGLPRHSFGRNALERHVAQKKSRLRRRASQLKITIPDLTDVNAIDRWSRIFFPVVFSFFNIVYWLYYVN
T1 sequence (P18507 whole entry): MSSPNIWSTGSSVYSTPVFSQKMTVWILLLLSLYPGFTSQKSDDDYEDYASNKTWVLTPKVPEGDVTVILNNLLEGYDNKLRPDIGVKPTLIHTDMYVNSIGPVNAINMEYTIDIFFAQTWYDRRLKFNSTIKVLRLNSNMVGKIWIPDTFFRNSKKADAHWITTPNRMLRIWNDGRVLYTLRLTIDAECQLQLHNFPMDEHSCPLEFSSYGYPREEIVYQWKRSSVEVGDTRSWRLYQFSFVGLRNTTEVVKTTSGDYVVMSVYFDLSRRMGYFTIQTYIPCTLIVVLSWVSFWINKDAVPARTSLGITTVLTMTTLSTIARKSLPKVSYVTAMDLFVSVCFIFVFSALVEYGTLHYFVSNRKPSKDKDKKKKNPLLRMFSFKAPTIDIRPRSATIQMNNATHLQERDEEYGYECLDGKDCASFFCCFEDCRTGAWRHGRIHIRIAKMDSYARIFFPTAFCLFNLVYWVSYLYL
Description: Displacement of [3H]Ro15-1788 from GABA-Aalpha1beta2gamma2 receptor (unknown origin) expressed in cell membranes after 1 hr.

Assay [10] has as its target GABA A receptor alpha-2/beta-2/gamma-2 (Homo sapiens) (UniProt P47870+P18507+P47869). Description: Displacement of [3H]Ro15-1788 from GABA-Aalpha2beta2gamma2 receptor (unknown origin) expressed in cell membranes after 1 hr relative to control.
In assay [11] the test system is Rattus norvegicus. Kind of assay: Anxiolytic-like activity in Sprague-Dawley rat assessed as total number of arm entries at 10 mg/kg, po administered 30 mins prior to test by elevated […] maze test. It counts as functional.
The test system of assay [12] is Mus musculus. Description: Anxiolytic-like activity in CD-1 mouse assessed as time spent in light area at 3 mg/kg, po administered 30 mins prior to test by light/dark exploration test relative to control. It counts as functional.
The target of assay [13] is GABA-A receptor; alpha-5/beta-3/gamma-2 (Homo sapiens) (UniProt P18507+P28472+P31644). Description: Displacement of [3H]Ro15-1788 from GABA-Aalpha5beta3gamma2 receptor (unknown origin) expressed in cell membranes after 1 hr relative to control.
Assay [14] concerns Mus musculus. Kind of assay: Anxiolytic-like activity in CD-1 mouse assessed as number of transfer from one compartment to other at 3 mg/kg, po administered 30 mins prior to test by light/dark exploration test. It is filed as functional.
The subject of assay [15] is Mus musculus. Description: Anxiolytic-like activity in CD-1 mouse assessed as time spent in light area at 10 mg/kg, po administered 30 mins prior to test by light/dark exploration test relative to control. It counts as functional.
The test system of assay [16] is Mus musculus. Kind of assay: Anxiolytic-like activity in CD-1 mouse assessed as number of transfer from one compartment to other at 30 mg/kg, po administered 30 mins prior to test by light/dark exploration test. It is filed as functional.
The test system of assay [17] is Rattus norvegicus. Kind of assay: Anxiolytic-like activity in Sprague-Dawley rat assessed as time spent in open arms at 10 mg/kg, po administered 30 mins prior to test by elevated […] maze test relative to control. It is filed as functional.
Assay [18] has as its system Mus musculus. Kind of assay: Anxiolytic-like activity in CD-1 mouse assessed as number of transfer from one compartment to other at 30 mg/kg, po administered 30 mins prior to test followed by flumazenil injection by light/dark exploration test. It is filed as functional.
Assay [19] relates to Mus musculus. Description: Anxiolytic-like activity in CD-1 mouse assessed as number of transfer from one compartment to other at 10 mg/kg, po administered 30 mins prior to test by light/dark exploration test. It is filed as functional.
Assay [20] deals with Mus musculus. Kind of assay: Anxiolytic-like activity in CD-1 mouse assessed as increase in time spent in light area at 1 to 30 mg/kg, po administered 30 mins prior to test by light/dark exploration test. It counts as functional, organism-based.

27 molecules from ChEMBL document CHEMBL3992560, “Synthesis and pharmacological evaluation of pyrazolo[1,5-a]pyrimidin-7(4H)-one derivatives as potential GABAA-R ligands” (Bioorg Med Chem, 2017) can be followed below.

Activity calls are given as the source filed them. No cut-off for these calls is given here.

As for `O=c1c(Cc2ccccc2)c[nH]c2c(Cc3ccccc3)cnn12`, the Ki entry in assay [1] was “Not Active”. Further, the inhibition in [2] is under 80%.
Regarding `O=c1c(Cc2ccccc2)c[nH]c2c(-c3ccc4ccccc4c3)cnn12`, the Ki in assay [1] (read-out: Ki) worked out at 73.3 nM. Further, the inhibition in assay [2] is over 80%.
In the case of `O=c1c(-c2ccccc2)c[nH]c2c(-c3ccc(F)cc3)cnn12`, the Ki in assay [1] (read-out: Ki) came to 132 nM. Also, the inhibition in [2] is over 80%.
For `O=c1c(-c2ccccc2)c[nH]c2c(-c3cccnc3)cnn12`, the Ki in assay [1] (read-out: Ki) came to 58.4 nM. The inhibition in [2] was over 80%.
For `O=c1c(-c2ccccc2)c[nH]c2c(-c3ccsc3)cnn12`, the Ki in [1] (read-out: Ki) was found to be 72.2 nM. This molecule gave an inhibition in assay [2] of over 80%.
For `COc1cccc(-c2cnn3c(=O)c(Cc4ccccc4)c[nH]c23)c1`, the Ki in [1] (read-out: Ki) was found to be 49.6 nM. Further, the inhibition in [2] is over 80%.
With `O=c1c(Cc2ccccc2)c[nH]c2c(-c3ccc(F)cc3)cnn12`, the Ki in assay [1] (read-out: Ki) worked out at 34.6 nM. The same molecule returned an inhibition in assay [2] of over 80%.
Take `COc1cccc(-c2cnn3c(=O)c(-c4ccccc4)c[nH]c23)c1`: in assay [1] (read-out: Ki), the Ki came to 192 nM. In assay [2], the inhibition is over 80%.
As to `CN1C(=O)CN=C(c2ccccc2)c2cc(Cl)ccc21` [DIAZEPAM], the Activity is given as 171.6% in [3], 10.5 in assay [4], 34.9% in assay [5] and 8.3 in [6]. The Ki in assay [1] (read-out: Ki) amounted to 10 nM.
Consider `O=c1c(Cc2ccccc2)c[nH]c2c(-c3cccnc3)cnn12`, for which, in [1] (read-out: Ki), the Ki amounted to 73.3 nM. The molecule also had an inhibition in assay [2] of over 80%.
For `Cc1cccc(-c2cnn3c(=O)c(Cc4ccccc4)c[nH]c23)c1` the same measures were 18 nM and over 80%.
In the same order, the values of `O=c1c(Cc2ccccc2)c[nH]c2c(-c3ccccc3)cnn12` are 132 nM and over 80%.
For the molecule `O=c1c(-c2ccccc2)c[nH]c2c(Cc3ccccc3)cnn12`, the Ki entry in assay [1] is “Not Active”. In assay [2], this molecule came in with an inhibition of under 80%.
As to `O=c1c(Cc2ccccc2)c[nH]c2c(-c3cccs3)cnn12`, the Ki in [1] (read-out: Ki) is 502 nM. Moreover, the inhibition in assay [2] is over 80%.
As for `O=c1c(-c2ccccc2)c[nH]c2c(-c3ccc4ccccc4c3)cnn12`, in assay [1], the Ki result was “Not Active”. Further, the inhibition in assay [2] was under 80%.
`O=c1c(Cc2ccccc2)c[nH]c2c(-c3ccccn3)cnn12`: the Activity in assay [7] worked out at 120.08%; in assay [8], 164.4%; in assay [3], 113.9%; in [11] it was 10.5; in assay [12], 145.2%; in assay [14] it was 21.3. Further, the Activity was 165.4% in assay [15]; 28.9 in [16]; 29.6% in [17]; 12.8 in [18]; 23.9 in [19]; 15 in assay [6]. In addition, the Ki in assay [9] turned out to be 183 nM; in [1] (read-out: Ki), 29.8 nM. The values for the inhibition in [10], in assay [13] and in [2] were 14%, 31% and over 80%, respectively.
As for `O=c1c(-c2ccccc2)c[nH]c2c(-c3cccc(C(F)(F)F)c3)cnn12`, the Ki in [1] (read-out: Ki) was found to be 118 nM. Also, the inhibition in assay [2] is over 80%.
In the same order, the values of `O=c1c(-c2ccccc2)c[nH]c2c(-c3ccccc3)cnn12` are 368 nM and over 80%.
`O=c1c(Cc2ccccc2)c[nH]c2c(-c3ccsc3)cnn12`: the Ki entry in assay [1] was “Not Active”. In addition, the inhibition in assay [2] was under 80%.
As to `O=c1c(Cc2ccccc2)c[nH]c2c(-c3cccc(Br)c3)cnn12`, the Ki in assay [1] (read-out: Ki) was 29.9 nM. The same molecule showed an inhibition in assay [2] of over 80%.
With `O=c1c(-c2ccccc2)c[nH]c2c(-c3cccs3)cnn12`, the Ki in assay [1] (read-out: Ki) was found to be 215 nM. This molecule had an inhibition in [2] of over 80%.
As for `O=c1c(-c2ccccc2)c[nH]c2c(-c3ccccn3)cnn12`, in assay [20], the result was inactive. Also, the Ki in assay [1] (read-out: Ki) is 211 nM. Further, in [2], the inhibition was over 80%.
As to `O=c1c(Cc2ccccc2)c[nH]c2c(-c3cccc(C(F)(F)F)c3)cnn12`, the Ki in assay [1] (read-out: Ki) came out at 22.3 nM. The same molecule displayed an inhibition in assay [2] of over 80%.
With `O=c1c(-c2ccccc2)c[nH]c2c(-c3cccc4ccccc34)cnn12`, in assay [1] (read-out: Ki), the inhibition constant (Ki) stood at 375 nM. For the same molecule, the inhibition in assay [2] is over 80%.
With `Cc1cccc(-c2cnn3c(=O)c(-c4ccccc4)c[nH]c23)c1`, the Ki in assay [1] (read-out: Ki) was 87 nM. In [2], this molecule came in with an inhibition of over 80%.
For `O=c1c(-c2ccccc2)c[nH]c2c(-c3cccc(Br)c3)cnn12` the same measures were 39.3 nM and over 80%.
For `O=c1c(Cc2ccccc2)c[nH]c2c(-c3cccc4ccccc34)cnn12` the same measures were 112 nM and over 80%.
